The values below come from ChEMBL document CHEMBL1128080, “Structural Factors affecting the kinetics of O,N-acyl transfer in potential O-peptide prodrugs” (Bioorg Med Chem Lett, 1995).

As usually defined, the half-life is how long it takes for the measured level to halve.

A short description of the series: Half-life for the conversion of compound to the corresponding N-peptide under pseudo physiological conditions (0.04 M phosphate, pH 7.4 and 37 degree C). The settings on record: phosphate buffer. Format: ADME.
Turning to `CCC(NC(=O)C(NC)C(OC(=O)C(NC(=O)OCc1ccccc1)C(C)C)C(C)C)C(=O)NCCc1ccc(OC)c(OC)c1` (stereo not drawn), the half-life amounted to 1.58 h.

`CNC1C(=O)NCCCCN(C)C(C(C)C)C(=O)OC1C(C)C` (stereo not drawn) gave a half-life of 6.17 h.

`CCC(NC(=O)C(N)C(OC(=O)C(NC(=O)OCc1ccccc1)C(C)C)C(C)C)C(=O)NCCc1ccc(OC)c(OC)c1` (stereo not drawn) returned a half-life of 0.0667 h.
